pIC50: −log10 of the molar value. One block for each compound: values may come before it. Calls of active or inactive are those of the source. The rule behind the calls is not given here.
What was measured:
L929 = assay: Cytotoxicity against mouse L929 cells; format: cell-based
[1] = Clearance in Sprague-Dawley rat at 5 mg/kg, iv by LC-MS/MS analysis; format: ADME, organism-based; conditions: in vivo
[2] = Drug level in ICR mouse brain at 5 mg/kg, iv measured after 0.5 hrs by LC-MS/MS analysis; format: ADME, organism-based; conditions: read-out: Drug uptake
[3] = biological target: T1, 5-hydroxytryptamine receptor 2A (Homo sapiens, UniProt P28223); assay: Antagonist activity at recombinant human full-length 5HT2A receptor expressed in CHOK1 cells assessed as inhibition of serotonin-induced inositol phosphate accumulation at 1 uM measured after 30 mins by TR-FRET assay relative to control; format: functional, cell-based; conditions: CHO-K1
T1 sequence (P28223 whole entry): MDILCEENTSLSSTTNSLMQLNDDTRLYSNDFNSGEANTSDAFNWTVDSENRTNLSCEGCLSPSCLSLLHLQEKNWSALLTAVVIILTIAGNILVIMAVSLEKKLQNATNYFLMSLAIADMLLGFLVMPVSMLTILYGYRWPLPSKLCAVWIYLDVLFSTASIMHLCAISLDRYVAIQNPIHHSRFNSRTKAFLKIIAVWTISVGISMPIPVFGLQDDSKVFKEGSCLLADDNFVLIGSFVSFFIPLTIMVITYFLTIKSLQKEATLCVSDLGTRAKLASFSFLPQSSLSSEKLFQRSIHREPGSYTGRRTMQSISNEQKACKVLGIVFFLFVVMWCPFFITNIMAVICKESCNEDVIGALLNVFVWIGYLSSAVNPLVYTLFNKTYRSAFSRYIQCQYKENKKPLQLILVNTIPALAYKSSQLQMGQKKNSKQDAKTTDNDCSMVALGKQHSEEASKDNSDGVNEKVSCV

Mus musculus [4] = assay: Protection against 10 week HFD-induced liver disease in C57BL/6J mouse assessed as reduction in body fat accumulation at 100 mg/kg, ip administered daily for 10 weeks and measured post last dose by NMR analysis; format: functional, organism-based
hERG (KCNH2) = hERG (KCNH2) (Homo sapiens, UniProt Q12809); assay: Inhibition of human ERG at 10 uM relative to control
Chain of hERG (KCNH2) (Q12809 whole entry): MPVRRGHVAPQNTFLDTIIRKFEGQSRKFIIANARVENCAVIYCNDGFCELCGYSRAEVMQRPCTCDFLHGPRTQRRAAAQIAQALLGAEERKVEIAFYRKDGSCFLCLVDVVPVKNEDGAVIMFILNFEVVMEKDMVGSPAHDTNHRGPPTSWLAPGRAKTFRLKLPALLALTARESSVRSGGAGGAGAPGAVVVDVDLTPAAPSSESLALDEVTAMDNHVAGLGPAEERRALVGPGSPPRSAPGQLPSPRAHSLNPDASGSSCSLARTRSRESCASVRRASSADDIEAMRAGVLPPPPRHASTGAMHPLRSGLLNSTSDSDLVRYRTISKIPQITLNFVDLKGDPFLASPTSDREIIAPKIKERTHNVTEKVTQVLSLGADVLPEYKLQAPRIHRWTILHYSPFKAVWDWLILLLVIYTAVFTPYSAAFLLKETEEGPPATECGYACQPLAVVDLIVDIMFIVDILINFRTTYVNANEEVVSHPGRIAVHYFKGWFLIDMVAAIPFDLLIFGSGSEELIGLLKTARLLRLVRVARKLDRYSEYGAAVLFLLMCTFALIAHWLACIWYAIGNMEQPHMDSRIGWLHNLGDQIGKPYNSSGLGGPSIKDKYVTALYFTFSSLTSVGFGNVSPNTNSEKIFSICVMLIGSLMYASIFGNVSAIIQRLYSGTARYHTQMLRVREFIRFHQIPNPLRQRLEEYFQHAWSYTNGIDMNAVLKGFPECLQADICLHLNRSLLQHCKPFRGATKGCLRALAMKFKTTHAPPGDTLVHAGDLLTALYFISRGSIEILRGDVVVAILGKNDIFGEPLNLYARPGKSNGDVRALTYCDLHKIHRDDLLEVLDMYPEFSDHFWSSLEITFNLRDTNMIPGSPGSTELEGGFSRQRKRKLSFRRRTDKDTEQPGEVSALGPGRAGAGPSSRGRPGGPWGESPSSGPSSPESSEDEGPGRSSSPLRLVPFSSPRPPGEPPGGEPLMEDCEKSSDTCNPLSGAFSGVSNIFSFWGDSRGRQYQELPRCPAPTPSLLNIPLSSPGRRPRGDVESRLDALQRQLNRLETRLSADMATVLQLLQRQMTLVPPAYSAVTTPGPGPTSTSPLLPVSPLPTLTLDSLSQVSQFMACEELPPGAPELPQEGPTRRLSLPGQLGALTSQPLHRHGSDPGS

CHO-K1 = assay: Cytotoxicity against CHOK1 cells; format: cell-based; conditions: Cricetulus griseus
Mus musculus [5] = assay: Protection against 10 week HFD-induced liver disease in C57BL/6J mouse assessed as reduction in adipocyte size of inguinal white adipose tissue at 50 to 100 mg/kg, ip administered daily for 10 weeks and measured post last dose by H and E staining based histological analysis; format: functional, organism-based
[6] = Half life in Sprague-Dawley rat at 5 mg/kg, iv by LC-MS/MS analysis; format: ADME, organism-based; conditions: in vivo
Mus musculus [7] = assay: Protection against 10 week HFD-induced liver disease in C57BL/6J mouse assessed as reduction in brown adipose tissue fat mass at 50 to 100 mg/kg, ip administered daily for 10 weeks and measured post last dose by H and E staining based histological analysis; format: functional, organism-based
Mus musculus [8] = assay: Protection against 10 week HFD-induced liver disease in C57BL/6J mouse assessed as reduction in body weight gain at 100 mg/kg, ip administered daily for 10 weeks and measured post HFD stimulation; format: functional, organism-based
NIH3T3 = assay: Cytotoxicity against mouse NIH/3T3 cells; format: cell-based
[9] = biological target: 5-hydroxytryptamine receptor 2B (Homo sapiens) (UniProt P41595); assay: Antagonist activity at recombinant human full-length 5HT2B receptor expressed in CHOK1 cells assessed as inhibition of serotonin-induced inositol phosphate accumulation at 1 uM measured after 30 mins by TR-FRET assay relative to control; format: functional, cell-based; conditions: CHO-K1
Chain of 5-hydroxytryptamine receptor 2B (Homo sapiens) (P41595 whole entry): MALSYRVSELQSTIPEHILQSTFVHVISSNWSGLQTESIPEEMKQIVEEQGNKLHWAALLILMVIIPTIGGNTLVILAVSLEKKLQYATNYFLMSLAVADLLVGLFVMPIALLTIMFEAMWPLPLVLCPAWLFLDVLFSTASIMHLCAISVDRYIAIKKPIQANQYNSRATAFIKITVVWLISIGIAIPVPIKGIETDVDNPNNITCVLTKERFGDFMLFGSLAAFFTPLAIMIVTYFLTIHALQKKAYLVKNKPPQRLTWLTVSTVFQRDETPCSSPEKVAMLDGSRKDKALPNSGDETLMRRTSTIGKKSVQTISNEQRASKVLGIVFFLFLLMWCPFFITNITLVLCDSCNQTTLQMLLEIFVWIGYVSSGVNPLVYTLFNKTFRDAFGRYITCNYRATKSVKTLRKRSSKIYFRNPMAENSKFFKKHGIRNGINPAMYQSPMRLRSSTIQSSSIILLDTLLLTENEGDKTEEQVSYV

in vitro = conditions: rat, liver microsomes
Description: Stability in rat liver microsomes assessed as parent compound remaining measured after 30 mins

Mus musculus [10] = assay: Protection against 10 week HFD-induced liver disease in C57BL/6J mouse assessed as reduction in hepatic triglyceride accumulation at 50 to 100 mg/kg, ip administered daily for 10 weeks and measured post last dose by H and E staining based histological analysis; format: functional, organism-based
Mus musculus [11] = assay: Protection against 10 week HFD-induced liver disease in C57BL/6J mouse assessed as reduction in epididymal white adipose tissue fat mass at 50 to 100 mg/kg, ip administered daily for 10 weeks and measured post last dose by H and E staining based histological analysis; format: functional, organism-based
Mus musculus [12] = assay: Protection against 10 week HFD-induced liver disease in C57BL/6J mouse assessed as reduction in crownlike structure appearance in epididymal white adipose tissue at 50 to 100 mg/kg, ip administered daily for 10 weeks and measured post last dose by H and E staining based histological analysis; format: functional, organism-based
[13] = AUCt in Sprague-Dawley rat at 5 mg/kg, iv by LC-MS/MS analysis; format: ADME, organism-based; conditions: in vivo
[14] = AUC (infinity) in Sprague-Dawley rat at 5 mg/kg, iv by LC-MS/MS analysis; format: ADME, organism-based; design: dose 5 mg/kg, time infinity, route intravenous; conditions: in vivo
[15] = biological target: T2, 5-hydroxytryptamine receptor 3A (Homo sapiens) (UniProt P46098); assay: Antagonist activity at 5HT3 (unknown origin) at 1 uM relative to control
T2 sequence (whole entry): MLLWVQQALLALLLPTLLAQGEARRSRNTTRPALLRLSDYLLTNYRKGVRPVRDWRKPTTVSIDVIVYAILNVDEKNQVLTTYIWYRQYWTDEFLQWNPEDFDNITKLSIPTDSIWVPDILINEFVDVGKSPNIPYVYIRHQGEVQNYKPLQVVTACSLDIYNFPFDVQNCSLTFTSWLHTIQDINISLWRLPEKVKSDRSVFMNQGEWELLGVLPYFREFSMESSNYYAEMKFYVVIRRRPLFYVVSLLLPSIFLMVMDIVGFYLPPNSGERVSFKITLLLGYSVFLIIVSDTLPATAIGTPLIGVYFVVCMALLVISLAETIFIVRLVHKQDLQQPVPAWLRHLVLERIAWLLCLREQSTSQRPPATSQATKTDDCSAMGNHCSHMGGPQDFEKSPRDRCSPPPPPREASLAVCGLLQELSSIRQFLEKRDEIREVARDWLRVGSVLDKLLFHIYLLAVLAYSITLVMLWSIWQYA

[16] = Plasma concentration in ICR mouse at 5 mg/kg, iv measured after 0.5 hrs by LC-MS/MS analysis; format: ADME, organism-based
Mus musculus [17] = assay: Protection against 10 week HFD-induced liver disease in C57BL/6J mouse assessed as reduction in hepatic triglyceride accumulation at 50 to 100 mg/kg, ip administered daily for 10 weeks and measured post last dose by triglyceride reagent based colorimetric analysis; format: functional, organism-based
[18] = biological target: T3, 5-hydroxytryptamine receptor 2C (Homo sapiens) (UniProt P28335); assay: Antagonist activity at recombinant human 5HT2C receptor expressed in HEK293 cells assessed as inhibition of serotonin-induced inositol phosphate accumulation at 1 uM measured after 30 mins by HTRF assay relative to control; format: functional, cell-based
T3 sequence (whole entry): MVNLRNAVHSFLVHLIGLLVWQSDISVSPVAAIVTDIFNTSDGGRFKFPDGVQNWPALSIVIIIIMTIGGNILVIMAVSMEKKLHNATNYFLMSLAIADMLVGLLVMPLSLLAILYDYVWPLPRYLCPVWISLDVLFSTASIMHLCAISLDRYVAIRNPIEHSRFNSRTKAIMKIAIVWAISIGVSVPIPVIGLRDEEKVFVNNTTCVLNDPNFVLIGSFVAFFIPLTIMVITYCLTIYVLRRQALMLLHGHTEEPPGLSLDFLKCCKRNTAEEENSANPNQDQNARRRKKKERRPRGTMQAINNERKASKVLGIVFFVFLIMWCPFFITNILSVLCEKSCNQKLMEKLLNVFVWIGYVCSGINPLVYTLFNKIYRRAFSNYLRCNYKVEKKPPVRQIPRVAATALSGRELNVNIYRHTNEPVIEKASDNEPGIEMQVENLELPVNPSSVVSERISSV

[19] = Ratio of drug level in brain to plasma of ICR mouse at 5 mg/kg, iv measured after 0.5 hrs by LC-MS/MS analysis; format: ADME, organism-based; conditions: read-out: BPR
[20] = biological target: T1, 5-hydroxytryptamine receptor 2A; assay: Antagonist activity at 5HT2A receptor (unknown origin) expressed in HEK293 cells assessed as inhibition of serotonin hydrochloride-induced calcium flux preincubated for 1 hr followed by serotonin hydrochloride addition by calcium 6 dye based FLIPR assay; format: functional, cell-based
Mus musculus [21] = assay: Protection against 10 week HFD-induced liver disease in C57BL/6J mouse assessed as reduction in liver weight at 50 to 100 mg/kg, ip administered daily for 10 weeks and measured post last dose; format: functional, organism-based
[22] = Volume of distribution at steady state in Sprague-Dawley rat at 5 mg/kg, iv by LC-MS/MS analysis; format: ADME, organism-based; conditions: in vivo, read-out: Vdss
[23] = biological target: 5-hydroxytryptamine receptor 1B (Homo sapiens) (UniProt P28222); assay: Antagonist activity at recombinant human 5HT1B expressed in human HeLa cells assessed as inhibition of serotonin-induced cAMP accumulation at 1 uM measured after 5 mins by TR-FRET assay relative to control; format: functional, cell-based
Chain of 5-hydroxytryptamine receptor 1B (Homo sapiens) (P28222 whole entry): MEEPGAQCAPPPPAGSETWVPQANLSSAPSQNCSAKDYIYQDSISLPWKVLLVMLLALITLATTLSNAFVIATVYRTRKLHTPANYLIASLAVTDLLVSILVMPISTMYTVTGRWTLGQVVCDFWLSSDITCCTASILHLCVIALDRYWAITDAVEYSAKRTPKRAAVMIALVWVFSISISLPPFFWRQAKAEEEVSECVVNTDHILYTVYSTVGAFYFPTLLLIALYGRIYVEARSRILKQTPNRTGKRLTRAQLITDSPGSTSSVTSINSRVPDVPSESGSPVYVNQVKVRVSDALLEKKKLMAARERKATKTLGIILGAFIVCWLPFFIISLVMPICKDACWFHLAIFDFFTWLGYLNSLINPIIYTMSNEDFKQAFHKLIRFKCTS

Mus musculus [24] = assay: Protection against 10 week HFD-induced liver disease in C57BL/6J mouse assessed as reduction in inguinal white adipose tissue fat mass at 50 to 100 mg/kg, ip administered daily for 10 weeks and measured post last dose by H and E staining based histological analysis; format: functional, organism-based
[25] = Stability in human liver microsomes assessed as parent compound remaining measured after 30 mins; format: ADME, Microsome; conditions: read-out: Stability
Mus musculus [26] = assay: Protection against 10 week HFD-induced liver disease in C57BL/6J mouse assessed as increase in lead body mass at 100 mg/kg, ip administered daily for 10 weeks and measured post last dose by NMR analysis; format: functional, organism-based
Vero = assay: Cytotoxicity against African green monkey Vero cells; format: cell-based; conditions: Chlorocebus sabaeus
Mus musculus [27] = assay: Protection against 10 week HFD-induced liver disease in C57BL/6J mouse assessed as reduction in blood glucose level at 100 mg/kg, ip administered daily for 10 weeks and measured 9 weeks post HFD stimulation by IPGTT; format: functional, organism-based
[28] = biological target: 5-hydroxytryptamine receptor 7 (Homo sapiens) (UniProt P34969); assay: Antagonist activity at recombinant human 5HT7 receptor expressed in CHOK1 cells assessed as inhibition of serotonin-induced cAMP accumulation at 1 uM measured after 30 mins by HTRF assay relative to control; format: functional, cell-based; conditions: CHO-K1
Chain of 5-hydroxytryptamine receptor 7 (Homo sapiens) (P34969 whole entry): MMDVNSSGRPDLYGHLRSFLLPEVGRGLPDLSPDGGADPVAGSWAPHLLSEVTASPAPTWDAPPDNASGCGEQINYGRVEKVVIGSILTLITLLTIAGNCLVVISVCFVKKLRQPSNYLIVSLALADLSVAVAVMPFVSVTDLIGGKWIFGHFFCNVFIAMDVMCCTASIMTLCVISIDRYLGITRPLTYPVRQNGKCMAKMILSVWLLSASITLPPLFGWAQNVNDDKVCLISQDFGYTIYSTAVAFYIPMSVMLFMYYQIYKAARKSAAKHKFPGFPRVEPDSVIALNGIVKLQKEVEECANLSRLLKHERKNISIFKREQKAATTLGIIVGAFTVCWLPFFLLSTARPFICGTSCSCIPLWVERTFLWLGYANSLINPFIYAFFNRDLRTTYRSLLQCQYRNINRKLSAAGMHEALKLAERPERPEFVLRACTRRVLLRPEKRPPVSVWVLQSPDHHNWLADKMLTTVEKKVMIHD

HFL1 = assay: Cytotoxicity against human HFL1 cells; format: cell-based
[29] = biological target: T4, 5-hydroxytryptamine receptor 1A (Homo sapiens) (UniProt P08908); assay: Antagonist activity at human 5HT1A expressed in mouse BA/F3 cells assessed as inhibition of serotonin-induced cAMP accumulation at 1 uM by fluorescence assay relative to control; format: functional, cell-based; conditions: BaF3
T4 sequence (whole entry): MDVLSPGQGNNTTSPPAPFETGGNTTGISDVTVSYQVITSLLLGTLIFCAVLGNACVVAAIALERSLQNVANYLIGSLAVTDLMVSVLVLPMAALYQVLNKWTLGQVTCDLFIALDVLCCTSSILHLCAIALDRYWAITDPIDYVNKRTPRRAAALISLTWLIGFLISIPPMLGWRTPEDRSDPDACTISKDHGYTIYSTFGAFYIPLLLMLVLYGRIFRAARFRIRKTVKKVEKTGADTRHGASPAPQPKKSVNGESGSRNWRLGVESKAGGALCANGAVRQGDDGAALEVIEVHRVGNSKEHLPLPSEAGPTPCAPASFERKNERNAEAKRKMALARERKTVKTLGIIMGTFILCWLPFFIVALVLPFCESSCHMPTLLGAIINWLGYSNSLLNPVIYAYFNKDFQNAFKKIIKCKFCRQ

[30] = Permeability of the compound by PAMPA; format: ADME; conditions: read-out: permeability

clearance [1]: 41 mL/min/kg
concentration at 0.5 h [2]: 15.1 ng/g
inhibition [3]: 93%
half-life [6]: 16.9 h
inhibition [9]: 7%
remaining at 0.5 h (in vitro): 84%
AUC(0-t) [13]: 1910 ng·h/mL
AUC(0-inf) [14]: 2030 ng·h/mL
inhibition [15]: -5%
concentration at 0.5 h [16]: 416 ng/mL
inhibition [18]: 63.8%
Kp at 0.5 h [19]: 0.038
pIC50 [20]: 8.08
Vd [22]: 11 L/kg
inhibition [23]: 6%
remaining at 0.5 h [25]: 89%
inhibition [28]: 6.3%
inhibition [29]: -2.8%
Compound: CC(C)COc1ccc(CNC(=O)N(Cc2ccc(F)cc2)C2CCN(C(=O)CC[C@H](N)C(=O)O)CC2)cc1
pIC50 (L929): 4.19
Activity (Mus musculus [4]): Active
inhibition at 10 µM (hERG (KCNH2)): 18.7%
pIC50 (CHO-K1): 4.29
Activity (Mus musculus [5]): Active
Activity (Mus musculus [7]): Active
Activity (Mus musculus [8]): Active
pIC50 (NIH3T3): 4.74
Activity (Mus musculus [10]): Active
Activity (Mus musculus [11]): Active
Activity (Mus musculus [12]): Active
Activity (Mus musculus [17]): Active
Activity (Mus musculus [21]): Active
Activity (Mus musculus [24]): Active
Activity (Mus musculus [26]): Active
pIC50 (Vero): 4.26
Activity (Mus musculus [27]): Active
pIC50 (HFL1): 4.26

pIC50 [20]: 9.22
Compound: CC(C)COc1ccc(CNC(=O)N(Cc2ccc(F)cc2)C2CCNCC2)cc1

pIC50 [20]: 9.06
Compound: CN1CCC(N(Cc2ccc(F)cc2)C(=O)NCc2ccc(OCC(O)CN3CCN(c4nsc5ccccc45)CC3)cc2)CC1 (stereo not given)

Compound: O=C1CC2(CCCC2)CC(=O)N1CCCCN1CCN(c2ncccn2)CC1 [BUSPIRONE]
remaining at 0.5 h (in vitro): 15%
remaining at 0.5 h [25]: 4%

concentration at 0.5 h [2]: 741 ng/g
Papp [30]: 4.79 ×10⁻⁶ cm/s
concentration at 0.5 h [16]: 455 ng/mL
Kp at 0.5 h [19]: 1.63
pIC50 [20]: 9.41
Compound: CN1CCC(N(Cc2ccc(F)cc2)C(=O)NCc2ccc(OCC(O)CN3CCC(c4noc5cc(F)ccc45)CC3)cc2)CC1 (stereo not given)

— ChEMBL document CHEMBL4613264, “Design, Synthesis, and Biological Evaluation of New Peripheral 5HT2A Antagonists for Nonalcoholic Fatty Liver Disease” (J Med Chem, 2020)
